Reference: patent publication US20240158391A1, “DERIVATIVES OF 4-(IMIDAZO[1,2-A]PYRIDIN-3-YL)-N-(PYRIDIN-3-YL) PYRIMIDIN-2- AMINE FOR TREATING PROLIFERATIVE DISEASES AND CONDITIONS” (AUCENTRA THERAPEUTICS PTY LTD, priority 2019, published 2024)

Assays:
CDK9/CyclinT1 = CDK9/CyclinT1 (Homo sapiens, UniProt P50750); experiment: ADP Glo kinase assay, CDK9/CyclinT1; type: biochemical; settings: for Ki: CDK9/CyclinT1, Km ATP, read-out: Enzymatic inhibition, Ki, CDK9 T1
Summary of the method: (§1)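 ADP Glo reagent terminates each kinase reaction after an optimised incubation at room temperature. Compounds are tested at ten concentrations spanning 10 to 0.0005 μM, diluted 1:3, with 0.5% DMSO.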

CDK2/CyclinA2 = CDK2/CyclinA2 (Homo sapiens, UniProt P24941); experiment: ADP Glo kinase assay, CDK2/CyclinA2; type: biochemical; settings: for remaining activity at 1 µM: compound at 1 μM, read-out: Residual enzymatic activity (%) at 1 μM, CDK2 A; for Ki: Km ATP, read-out: Enzymatic inhibition, Ki, CDK2 A
Summary of the method: as §1

CDK7/CyclinH/Mat1 = CDK7/CyclinH/Mat1 (Homo sapiens, UniProt P50613); experiment: ADP Glo kinase assay, CDK7/CyclinH/Mat1; type: biochemical; settings: for Ki: Km ATP, read-out: Enzymatic inhibition, Ki, CDK7 H; for remaining activity at 1 µM: compound at 1 μM, read-out: Residual enzymatic activity (%) at 1 μM, CDK7 H
Sequence of CDK7/CyclinH/Mat1 (P50613 whole entry, species assumed): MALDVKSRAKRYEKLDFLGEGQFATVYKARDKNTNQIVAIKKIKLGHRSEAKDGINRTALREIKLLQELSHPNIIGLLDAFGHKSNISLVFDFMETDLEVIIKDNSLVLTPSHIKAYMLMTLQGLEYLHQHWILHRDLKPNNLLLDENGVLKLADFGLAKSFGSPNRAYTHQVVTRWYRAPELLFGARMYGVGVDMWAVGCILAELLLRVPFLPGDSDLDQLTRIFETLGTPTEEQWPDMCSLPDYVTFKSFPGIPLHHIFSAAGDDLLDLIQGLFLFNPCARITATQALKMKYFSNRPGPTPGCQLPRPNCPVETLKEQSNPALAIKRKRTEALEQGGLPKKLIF
Sequence of CDK7/CyclinH/Mat1 (P51946 whole entry partner, species assumed): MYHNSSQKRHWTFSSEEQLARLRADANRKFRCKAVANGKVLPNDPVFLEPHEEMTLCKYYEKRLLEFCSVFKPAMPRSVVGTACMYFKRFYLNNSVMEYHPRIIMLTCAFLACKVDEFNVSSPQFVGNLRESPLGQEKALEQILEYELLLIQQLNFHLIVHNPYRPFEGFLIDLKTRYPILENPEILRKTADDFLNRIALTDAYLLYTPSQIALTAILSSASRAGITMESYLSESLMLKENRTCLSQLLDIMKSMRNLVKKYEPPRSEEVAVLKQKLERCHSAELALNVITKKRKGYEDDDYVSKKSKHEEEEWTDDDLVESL
Sequence of CDK7/CyclinH/Mat1 (P51948 whole entry partner, species assumed): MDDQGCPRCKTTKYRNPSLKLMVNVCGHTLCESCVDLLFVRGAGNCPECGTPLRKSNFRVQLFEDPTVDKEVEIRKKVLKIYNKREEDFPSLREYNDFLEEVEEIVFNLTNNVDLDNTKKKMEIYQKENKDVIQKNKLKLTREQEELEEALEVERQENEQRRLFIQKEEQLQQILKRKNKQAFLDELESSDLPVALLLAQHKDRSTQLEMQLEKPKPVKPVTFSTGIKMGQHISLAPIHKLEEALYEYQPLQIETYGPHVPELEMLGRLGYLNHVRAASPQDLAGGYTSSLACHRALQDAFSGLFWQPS
Summary of the method: as §1

CDK4/CyclinD1 = CDK4/CyclinD1 (Homo sapiens, UniProt P11802); experiment: ADP Glo kinase assay, CDK4/CyclinD1; type: biochemical; settings: for remaining activity at 1 µM: compound at 1 μM, read-out: Residual enzymatic activity (%) at 1 μM, CDK4 D1; for Ki: Km ATP, read-out: Enzymatic inhibition, Ki, CDK4 D1
Sequence of CDK4/CyclinD1 (P11802 whole entry, species assumed): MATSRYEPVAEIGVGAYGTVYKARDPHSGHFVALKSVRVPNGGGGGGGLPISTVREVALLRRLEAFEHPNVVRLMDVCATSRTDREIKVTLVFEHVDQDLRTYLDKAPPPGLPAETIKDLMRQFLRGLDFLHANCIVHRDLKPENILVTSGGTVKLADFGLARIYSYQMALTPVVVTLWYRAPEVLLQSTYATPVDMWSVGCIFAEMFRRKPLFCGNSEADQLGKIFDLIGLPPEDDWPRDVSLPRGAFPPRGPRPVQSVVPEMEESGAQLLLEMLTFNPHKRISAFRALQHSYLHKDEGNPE
Sequence of CDK4/CyclinD1 (P24385 whole entry partner, species assumed): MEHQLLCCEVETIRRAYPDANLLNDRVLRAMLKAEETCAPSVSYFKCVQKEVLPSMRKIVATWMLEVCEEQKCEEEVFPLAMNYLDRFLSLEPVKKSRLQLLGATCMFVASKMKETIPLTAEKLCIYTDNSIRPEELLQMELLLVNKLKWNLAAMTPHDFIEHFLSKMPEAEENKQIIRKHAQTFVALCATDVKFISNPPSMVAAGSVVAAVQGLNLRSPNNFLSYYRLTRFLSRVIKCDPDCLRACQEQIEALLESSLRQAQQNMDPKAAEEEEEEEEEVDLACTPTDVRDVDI
Protocol: Test compounds are used in 1:3 serial dilutions for 10 concentrations (from 10-0.0005 μM) in 0.5% DMSO. […] The kinase reactions are run for optimised time period at room temperature and then the reaction is stopped by adding 5 μL of ADP Glo reagent.

FLT3-ITD = target: T1, FLT3-ITD (Homo sapiens, UniProt P36888); experiment: ADP Glo kinase assay, FLT3-ITD; type: biochemical; settings: for Ki: Km ATP 100 μM, read-out: Enzymatic inhibition, Ki, FLT3-ITD
T1 sequence (P36888 1-993): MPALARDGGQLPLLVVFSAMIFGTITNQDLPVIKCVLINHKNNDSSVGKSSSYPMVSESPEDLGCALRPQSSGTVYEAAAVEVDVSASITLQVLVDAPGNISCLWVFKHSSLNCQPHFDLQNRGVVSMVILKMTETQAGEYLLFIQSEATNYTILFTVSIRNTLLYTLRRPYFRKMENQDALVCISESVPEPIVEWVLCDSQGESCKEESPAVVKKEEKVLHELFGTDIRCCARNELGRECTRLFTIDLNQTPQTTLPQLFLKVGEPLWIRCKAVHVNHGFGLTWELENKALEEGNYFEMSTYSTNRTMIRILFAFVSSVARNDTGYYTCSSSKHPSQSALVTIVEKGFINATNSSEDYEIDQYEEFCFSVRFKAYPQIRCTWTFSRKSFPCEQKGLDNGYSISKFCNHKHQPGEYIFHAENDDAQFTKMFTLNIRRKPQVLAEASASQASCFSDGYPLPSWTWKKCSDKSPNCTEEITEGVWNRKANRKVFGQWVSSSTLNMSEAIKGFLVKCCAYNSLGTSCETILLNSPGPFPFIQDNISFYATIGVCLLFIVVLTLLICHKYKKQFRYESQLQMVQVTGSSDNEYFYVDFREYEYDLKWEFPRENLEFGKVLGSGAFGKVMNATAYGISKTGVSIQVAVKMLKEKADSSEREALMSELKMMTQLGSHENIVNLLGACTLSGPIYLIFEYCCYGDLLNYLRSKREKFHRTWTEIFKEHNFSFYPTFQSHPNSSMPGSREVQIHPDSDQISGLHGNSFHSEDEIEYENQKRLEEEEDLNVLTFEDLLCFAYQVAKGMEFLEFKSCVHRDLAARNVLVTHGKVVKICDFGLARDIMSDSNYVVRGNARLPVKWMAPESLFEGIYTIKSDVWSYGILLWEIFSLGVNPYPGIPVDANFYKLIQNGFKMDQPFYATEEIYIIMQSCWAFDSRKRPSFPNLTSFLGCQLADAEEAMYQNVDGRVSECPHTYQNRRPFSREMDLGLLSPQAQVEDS
Summary of the method: as §1

CDK6/CyclinD3 = CDK6/CyclinD3 (Homo sapiens, UniProt Q00534); experiment: ADP Glo kinase assay, CDK6/CyclinD3; type: biochemical; settings: for Ki: Km ATP, read-out: Enzymatic inhibition, Ki, CDK6 D3; for remaining activity at 1 µM: compound at 1 μM, read-out: Residual enzymatic activity (%) at 1 μM, CDK6 D3
Sequence of CDK6/CyclinD3 (Q00534 whole entry, species assumed): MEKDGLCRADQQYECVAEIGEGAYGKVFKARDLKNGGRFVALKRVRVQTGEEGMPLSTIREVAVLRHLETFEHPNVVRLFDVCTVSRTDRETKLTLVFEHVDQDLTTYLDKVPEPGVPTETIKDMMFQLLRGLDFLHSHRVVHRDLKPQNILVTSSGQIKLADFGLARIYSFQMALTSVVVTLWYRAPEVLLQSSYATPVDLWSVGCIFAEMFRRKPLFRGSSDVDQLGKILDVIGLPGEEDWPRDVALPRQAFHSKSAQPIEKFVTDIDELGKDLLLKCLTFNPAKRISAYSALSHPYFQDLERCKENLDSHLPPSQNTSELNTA
Sequence of CDK6/CyclinD3 (P30281 whole entry partner, species assumed): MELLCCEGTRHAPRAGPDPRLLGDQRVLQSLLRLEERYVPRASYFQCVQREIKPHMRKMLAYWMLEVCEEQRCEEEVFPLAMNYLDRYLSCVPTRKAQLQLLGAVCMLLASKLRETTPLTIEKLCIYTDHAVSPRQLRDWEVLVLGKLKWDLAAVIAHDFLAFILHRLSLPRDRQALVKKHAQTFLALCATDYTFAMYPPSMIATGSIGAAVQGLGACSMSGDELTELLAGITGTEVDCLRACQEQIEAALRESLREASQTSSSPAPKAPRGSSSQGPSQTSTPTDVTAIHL
Summary of the method: as §1

MV-4-11 = experiment: Proliferation assay (resazurin, leukemia cell lines), MV-4-11; type: cell-based; settings: Homo sapiens, MV4-11, read-out: 72 h Growth inhibition GI50, MV-4-11 cells
Excerpt: The following compounds were used as comparators.

CDK1/CyclinB = CDK1/CyclinB (Homo sapiens, UniProt P06493); experiment: ADP Glo kinase assay, CDK1/CyclinB; type: biochemical; settings: for Ki: Km ATP, read-out: Enzymatic inhibition, Ki, CDK1 B; for remaining activity at 1 µM: compound at 1 μM, read-out: Residual enzymatic activity (%) at 1 μM, CDK1 B
Sequence of CDK1/CyclinB (P06493 whole entry, species assumed): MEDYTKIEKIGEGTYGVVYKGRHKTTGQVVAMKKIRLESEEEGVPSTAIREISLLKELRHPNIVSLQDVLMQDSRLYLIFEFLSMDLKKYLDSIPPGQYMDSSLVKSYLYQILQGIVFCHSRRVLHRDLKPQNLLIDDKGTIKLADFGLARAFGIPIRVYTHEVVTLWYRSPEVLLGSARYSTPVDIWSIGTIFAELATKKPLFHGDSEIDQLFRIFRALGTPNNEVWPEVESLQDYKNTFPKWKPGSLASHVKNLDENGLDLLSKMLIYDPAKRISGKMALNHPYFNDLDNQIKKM
Sequence of CDK1/CyclinB (P14635 whole entry partner, species assumed): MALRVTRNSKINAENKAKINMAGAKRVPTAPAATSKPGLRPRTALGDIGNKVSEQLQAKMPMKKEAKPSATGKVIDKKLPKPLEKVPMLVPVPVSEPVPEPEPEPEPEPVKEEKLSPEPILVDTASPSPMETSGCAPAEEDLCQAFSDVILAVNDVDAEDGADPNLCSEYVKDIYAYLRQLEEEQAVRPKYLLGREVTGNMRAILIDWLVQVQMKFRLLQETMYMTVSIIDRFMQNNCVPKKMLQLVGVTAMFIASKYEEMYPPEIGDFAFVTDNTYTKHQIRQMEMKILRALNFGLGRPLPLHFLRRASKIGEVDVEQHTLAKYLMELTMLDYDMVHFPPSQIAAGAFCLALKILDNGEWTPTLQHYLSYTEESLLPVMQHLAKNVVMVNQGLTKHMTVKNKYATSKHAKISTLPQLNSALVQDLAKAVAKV
Summary of the method: as §1

Sequence of CDK9/CyclinT1 (P50750 whole entry, species assumed): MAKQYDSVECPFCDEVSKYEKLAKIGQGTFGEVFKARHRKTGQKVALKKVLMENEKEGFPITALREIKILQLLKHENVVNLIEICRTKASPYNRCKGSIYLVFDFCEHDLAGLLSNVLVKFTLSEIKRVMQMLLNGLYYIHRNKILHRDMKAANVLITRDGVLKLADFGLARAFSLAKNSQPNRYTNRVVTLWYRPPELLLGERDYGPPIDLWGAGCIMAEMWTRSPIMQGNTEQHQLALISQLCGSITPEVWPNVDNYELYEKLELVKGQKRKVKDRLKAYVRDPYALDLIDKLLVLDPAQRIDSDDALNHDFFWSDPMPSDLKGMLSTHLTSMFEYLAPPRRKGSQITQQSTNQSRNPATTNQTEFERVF
Sequence of CDK9/CyclinT1 (O60563 whole entry partner, species assumed): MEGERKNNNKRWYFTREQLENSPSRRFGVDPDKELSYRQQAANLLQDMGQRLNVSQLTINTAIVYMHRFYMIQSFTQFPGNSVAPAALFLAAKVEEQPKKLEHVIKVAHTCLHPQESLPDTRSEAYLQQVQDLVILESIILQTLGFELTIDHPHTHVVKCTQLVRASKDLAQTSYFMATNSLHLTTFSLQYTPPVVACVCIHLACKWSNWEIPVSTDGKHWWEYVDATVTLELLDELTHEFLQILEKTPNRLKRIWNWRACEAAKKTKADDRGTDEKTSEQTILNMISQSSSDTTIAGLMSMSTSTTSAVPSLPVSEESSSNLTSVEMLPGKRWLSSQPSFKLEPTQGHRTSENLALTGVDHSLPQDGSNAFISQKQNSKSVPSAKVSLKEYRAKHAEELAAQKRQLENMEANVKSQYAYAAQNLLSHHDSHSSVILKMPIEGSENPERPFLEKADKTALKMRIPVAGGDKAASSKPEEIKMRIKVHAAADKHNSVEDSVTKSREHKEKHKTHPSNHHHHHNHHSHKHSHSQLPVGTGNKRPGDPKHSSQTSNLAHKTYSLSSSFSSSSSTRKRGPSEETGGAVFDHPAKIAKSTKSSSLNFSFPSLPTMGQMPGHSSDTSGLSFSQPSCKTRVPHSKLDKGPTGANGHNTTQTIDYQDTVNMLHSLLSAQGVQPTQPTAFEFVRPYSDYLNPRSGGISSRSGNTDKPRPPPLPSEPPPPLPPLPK

SMILES	Ki (CDK9/CyclinT1) [nM]	remaining activity at 1 µM (CDK2/CyclinA2) [%]	Ki (CDK7/CyclinH/Mat1) [nM]	remaining activity at 1 µM (CDK4/CyclinD1) [%]	Ki (FLT3-ITD) [nM]	Ki (CDK6/CyclinD3) [nM]	GI50 (MV-4-11) [nM]	Ki (CDK1/CyclinB) [nM]	remaining activity at 1 µM (CDK7/CyclinH/Mat1) [%]	remaining activity at 1 µM (CDK6/CyclinD3) [%]	remaining activity at 1 µM (CDK1/CyclinB) [%]	Ki (CDK2/CyclinA2) [nM]	Ki (CDK4/CyclinD1) [nM]	Residual enzymatic activity (%) at 1 μM, FLT3-ITD (FLT3-ITD; compound at 1 μM) [%]	inhibition of CDK9 (in words) (CDK9/CyclinT1; compared with comparator compounds A, B and C (N-(pyridin-2-yl)pyrimidin-2-amine moiety))
CN1CCN(c2ccc(Nc3nccc(-c4cnc5ccc(F)cn45)n3)cn2)CC1 [Compound 12, 4-(6-Fluoroimidazo[1,2-a]pyridin-3-yl)-N-(6-(4-methylpiperazin-1-yl)pyridin-3-yl) pyrimidin-2-amine]	29		1720		7	779	13	865				156	380		
CN1CCN(c2ccc(Nc3nccc(-c4cnc5ccc(-c6cccnc6)cn45)n3)cn2)CC1 [Compound 7, N-(6-(4-Methylpiperazin-1-yl)pyridin-3-yl)-4-(6-(pyridin-3-yl)imidazo[1,2-a]pyridin-3-yl)pyrimidin-2-amine]	0.4		2730		4	2160	29	1100				825	> 500		dramatically and surprisingly increased the potency of inhibition of CDK9
CN1CCN(c2ccc(Nc3nccc(-c4cnc5ccc(-c6cncnc6)cn45)n3)cn2)CC1 [Compound 8, N-(6-(4-Methylpiperazin-1-yl)pyridin-3-yl)-4-(6-(pyrimidin-5-yl)imidazo[1,2-a]pyridin-3-yl)pyrimidin-2-amine]	6		> 5000		31	> 5000	19	> 5000				2860	> 500		
CN1CCN(c2ccc(Nc3nccc(-c4cnc5ccccn45)n3)cn2)CC1 [Compound 1, 4-(Imidazo[1,2-a]pyridin-3-yl)-N-(6-(4-methylpiperazin-1-yl)pyridin-3-yl)pyrimidin-2-amine]	2		1090		2	43	1	141				59	8		
CC(=O)N1CCN(c2ccc(Nc3ncc(C)c(-c4cnc5ccccn45)n3)cn2)CC1 [Compound 11, 1-(4-(5-((4-(Imidazo[1,2-a]pyridin-3-yl)-5-methylpyrimidin-2-yl)amino)pyridin-2-yl)piperazin-1-yl)ethan-1-one]	1340			21	20	1010	88		20		54	101			
Cc1cnc(Nc2ccc(N3CCN(C)CC3)nc2)nc1-c1cnc2ccccn12 [Compound 3, 4-(Imidazo[1,2-a]pyridin-3-yl)-5-methyl-N-(6-(4-methylpiperazin-1-yl)pyridin-3-yl) pyrimidin-2-amine]	136		2900		9	522	32	505				83	46		

More lines, main results first:

Ki (CDK9/CyclinT1) [nM]	remaining activity at 1 µM (CDK2/CyclinA2) [%]	Ki (CDK7/CyclinH/Mat1) [nM]	remaining activity at 1 µM (CDK4/CyclinD1) [%]	Ki (FLT3-ITD) [nM]	Ki (CDK6/CyclinD3) [nM]	GI50 (MV-4-11) [nM]	Ki (CDK1/CyclinB) [nM]	remaining activity at 1 µM (CDK7/CyclinH/Mat1) [%]	remaining activity at 1 µM (CDK6/CyclinD3) [%]	remaining activity at 1 µM (CDK1/CyclinB) [%]	Ki (CDK2/CyclinA2) [nM]	Ki (CDK4/CyclinD1) [nM]	Residual enzymatic activity (%) at 1 μM, FLT3-ITD (FLT3-ITD; compound at 1 μM) [%]	SMILES	inhibition of CDK9 (in words) (CDK9/CyclinT1; compared with comparator compounds A, B and C (N-(pyridin-2-yl)pyrimidin-2-amine moiety))
56	41	890	86	1450	> 5000	94	> 5000							CS(=O)(=O)N1CCN(c2ccc(Nc3nccc(-c4cnc5ccc(-c6cncnc6)cn45)n3)cn2)CC1 [Compound 20, N-(6-(4-(Methylsulfonyl)piperazin-1-yl)pyridin-3-yl)-4-(6-(pyrimidin-5-yl)imidazo[1,2-a]pyridin-3-yl)pyrimidin-2-amine]	
330	86		92	> 1000		920		92	47	100				Fc1cnc(Nc2ccc(Cl)nc2)nc1-c1cnc2ccc(-c3ccccc3)cn12 [Compound 34, N-(6-Chloropyridin-3-yl)-5-fluoro-4-(6-phenylimidazo[1,2-a]pyridin-3-yl)pyrimidin-2-amine]	
102	41		54	40		20		78	86	82				CCCNc1ccc(Nc2nccc(-c3cnc4ccc(Br)cn34)n2)cn1 [Compound 74, N^5-(4-(6-Bromoimidazo[1,2-a]pyridin-3-yl)pyrimidin-2-yl)-N^2-propylpyridine-2,5-diamine]	
14			48	11		50		29	24	32	376			CC(C)N1CCN(c2ccc(Nc3nccc(-c4cnc5ccc(-c6ccsc6)cn45)n3)cn2)CC1 [Compound 54, N-(6-(4-Isopropylpiperazin-1-yl)pyridin-3-yl)-4-(6-(thiophen-3-yl)imidazo[1,2-a]pyridin-3-yl)pyrimidin-2-amine]	
65	46		95	90		105		38	64	99				CN1CCN(Cc2ccc(Nc3nccc(-c4cnc5ccc(-c6ccccc6)cn45)n3)cn2)CC1 [Compound 78, N-(6-((4-Methylpiperazin-1-yl)methyl)pyridin-3-yl)-4-(6-phenylimidazo[1,2-a]pyridin-3-yl)pyrimidin-2-amine]	
> 1000	55		95			600		100	41	97			70	CCOc1ccc(Nc2ncc(F)c(-c3cnc4ccc(-c5ccccc5)cn34)n2)cn1 [Compound 31, N-(6-Ethoxypyridin-3-yl)-5-fluoro-4-(6-phenylimidazo[1,2-a]pyridin-3-yl)pyrimidin-2-amine]	
45		262	51	25	444	29	116				39			CC(=O)N1CCN(c2ccc(Nc3nccc(-c4cnc5ccc(-c6cn[nH]c6)cn45)n3)cn2)CC1 [Compound 47, 1-(4-(5-((4-(6-(1H-Pyrazol-4-yl)imidazo[1,2-a]pyridin-3-yl)pyrimidin-2-yl)amino)pyridin-2-yl)piperazin-1-yl)ethan-1-one]	
261	27	> 5000	92	91		37			53	60				Brc1ccc2ncc(-c3ccnc(Nc4ccc(N5CCCC5)nc4)n3)n2c1 [Compound 26, 4-(6-Bromoimidazo[1,2-a]pyridin-3-yl)-N-(6-(pyrrolidin-1-yl)pyridin-3-yl)pyrimidin-2-amine]	
